Measurements from patent US4156724A, “N-acylamino-alpha-arylacetamido cephalosporins and antibacterial compositions and methods containing them” (Sumitomo Chemical Company, Limited, priority 1974, dated 1979).
Converted amounts (≈) assume the structure as drawn.

Columns and labels:
Type in all cases: cell-based
Escherichia coli NIHJ = assay: Minimum Inhibitory Concentration, Escherichia coli NIHJ; settings: Escherichia coli NIHJ; read-out: Minimum Inhibitory Concentration
Description: (§1) anti-microbial activity tests were carried out on the compounds obtained in the Examples.

Serratia No. 72 = assay: Minimum Inhibitory Concentration, Serratia No. 72
Description: as §1

[1] = tested on: Enterobacter aerogeneus No. 75; assay: Minimum Inhibitory Concentration, Enterobacter aerogeneus No. 75; settings: Enterobacter aerogeneus No. 75; read-out: Minimum Inhibitory Concentration
Description: as §1

[2] = tested on: Pseudomonas aeruginosa 104; assay: Minimum Inhibitory Concentration, Pseudomonas aeruginosa 104; settings: Pseudomonas aeruginosa 104; read-out: Minimum Inhibitory Concentration
Description: as §1

[3] = tested on: Staphylococcus aureus 209 P; assay: Minimum Inhibitory Concentration, Staphylococcus aureus 209 P; settings: Staphylococcus aureus 209 P; read-out: Minimum Inhibitory Concentration
Description: as §1

[4] = tested on: Klebsiella pneumoniae 602; assay: Minimum Inhibitory Concentration, Klebsiella pneumoniae 602; settings: Klebsiella pneumoniae, 602, Klebsiella pneumoniae 602; read-out: Minimum Inhibitory Concentration
Description: as §1

Proteus vulgaris HX 19 = assay: Minimum Inhibitory Concentration, Proteus vulgaris HX 19; settings: HX19; Proteus vulgaris HX 19; read-out: Minimum Inhibitory Concentration
Description: as §1

[5] = tested on: Staphylococcus aureus FS 289; assay: Minimum Inhibitory Concentration, Staphylococcus aureus FS 289; settings: FS289; Staphylococcus aureus FS 289, strain resistant to penicillin; read-out: Minimum Inhibitory Concentration
Description: as §1
*Staphylococcus aureus FS 289: strain resistant to penicillin

SMILES: O=C(O)C1=C(CSc2cnn[nH]2)CSC2C(NC(=O)C(NC(=O)c3cnc4cccnc4c3O)c3cccc(O)c3)C(=O)N12 (stereo not shown) [Example 169]
- MIC (Escherichia coli NIHJ): 3.13 µg/mL (≈ 4.93 µM)
- MIC (Serratia No. 72): 25 µg/mL (≈ 39.4 µM)
- MIC [1]: 3.13 µg/mL (≈ 4.93 µM)
- MIC [2]: 3.13 µg/mL (≈ 4.93 µM)
- MIC [3]: 0.78 µg/mL (≈ 1.23 µM)
- MIC [4]: 1.56 µg/mL (≈ 2.46 µM)
- MIC (Proteus vulgaris HX 19): 0.1 µg/mL (≈ 0.158 µM)
- MIC [5]: 6.25 µg/mL (≈ 9.85 µM)

SMILES: O=C(O)C1=C(CSc2ccc(O)nn2)CSC2C(NC(=O)C(NC(=O)c3cnc4cccnc4c3O)c3ccc(O)cc3)C(=O)N12 (stereo not shown) [Example 170]
- MIC (Escherichia coli NIHJ): 6.25 µg/mL (≈ 9.45 µM)
- MIC (Serratia No. 72): 25 µg/mL (≈ 37.8 µM)
- MIC [1]: 6.25 µg/mL (≈ 9.45 µM)
- MIC [2]: 3.13 µg/mL (≈ 4.73 µM)
- MIC [3]: 0.78 µg/mL (≈ 1.18 µM)
- MIC [4]: 1.56 µg/mL (≈ 2.36 µM)
- MIC (Proteus vulgaris HX 19): 0.1 µg/mL (≈ 0.151 µM)
- MIC [5]: 6.25 µg/mL (≈ 9.45 µM)

SMILES: O=C(O)C1=C(CSc2nncs2)CSC2C(NC(=O)C(NC(=O)c3cnc4cccnc4c3O)c3ccc(O)c(O)c3)C(=O)N12 (stereo not shown) [Example 171]
- MIC (Escherichia coli NIHJ): 3.13 µg/mL (≈ 4.69 µM)
- MIC (Serratia No. 72): 25 µg/mL (≈ 37.4 µM)
- MIC [1]: 3.13 µg/mL (≈ 4.69 µM)
- MIC [2]: 3.13 µg/mL (≈ 4.69 µM)
- MIC [3]: 1.56 µg/mL (≈ 2.34 µM)
- MIC [4]: 1.56 µg/mL (≈ 2.34 µM)
- MIC (Proteus vulgaris HX 19): 0.2 µg/mL (≈ 0.3 µM)
- MIC [5]: 12.5 µg/mL (≈ 18.7 µM)

SMILES: COc1cnc2c(O)c(C(=O)NC(C(=O)NC3C(=O)N4C(C(=O)O)=C(CSc5nnnn5C)CSC34)c3ccc(O)cc3)cnc2n1 (stereo not shown) [Example 172]
- MIC (Escherichia coli NIHJ): 3.13 µg/mL (≈ 4.6 µM)
- MIC (Serratia No. 72): 25 µg/mL (≈ 36.7 µM)
- MIC [1]: 6.25 µg/mL (≈ 9.18 µM)
- MIC [2]: 6.25 µg/mL (≈ 9.18 µM)
- MIC [3]: 0.78 µg/mL (≈ 1.15 µM)
- MIC [4]: 3.13 µg/mL (≈ 4.6 µM)
- MIC (Proteus vulgaris HX 19): 0.78 µg/mL (≈ 1.15 µM)
- MIC [5]: 12.5 µg/mL (≈ 18.4 µM)

SMILES: CSc1ncc2c(O)c(C(=O)NC(C(=O)NC3C(=O)N4C(C(=O)O)=C(CSc5nnnn5C)CSC34)c3ccc(O)cc3)nnc2n1 (stereo not shown) [Example 173]
- MIC (Escherichia coli NIHJ): 12.5 µg/mL (≈ 17.9 µM)
- MIC (Serratia No. 72): 50 µg/mL (≈ 71.7 µM)
- MIC [1]: 25 µg/mL (≈ 35.8 µM)
- MIC [2]: 6.25 µg/mL (≈ 8.96 µM)
- MIC [3]: 0.78 µg/mL (≈ 1.12 µM)
- MIC [4]: 6.25 µg/mL (≈ 8.96 µM)
- MIC (Proteus vulgaris HX 19): 0.78 µg/mL (≈ 1.12 µM)
- MIC [5]: 12.5 µg/mL (≈ 17.9 µM)

SMILES: Cn1nnnc1SCC1=C(C(=O)O)N2C(=O)C(NC(=O)C(NC(=O)c3cnc4ccc(O)nc4c3O)c3ccc(O)cc3)C2SC1 (stereo not shown) [Example 174]
- MIC (Escherichia coli NIHJ): 3.13 µg/mL (≈ 4.7 µM)
- MIC (Serratia No. 72): 12.5 µg/mL (≈ 18.8 µM)
- MIC [1]: 3.13 µg/mL (≈ 4.7 µM)
- MIC [2]: 3.13 µg/mL (≈ 4.7 µM)
- MIC [3]: 0.78 µg/mL (≈ 1.17 µM)
- MIC [4]: 1.56 µg/mL (≈ 2.34 µM)
- MIC (Proteus vulgaris HX 19): 0.39 µg/mL (≈ 0.586 µM)
- MIC [5]: 12.5 µg/mL (≈ 18.8 µM)

SMILES: Cn1nnnc1SCC1=C(C(=O)O)N2C(=O)C(NC(=O)C(NC(=O)c3cnc4c(O)ccnc4c3O)c3ccc(O)cc3)C2SC1 (stereo not shown) [Example 175]
- MIC (Escherichia coli NIHJ): 3.13 µg/mL (≈ 4.7 µM)
- MIC (Serratia No. 72): 12.5 µg/mL (≈ 18.8 µM)
- MIC [1]: 6.25 µg/mL (≈ 9.39 µM)
- MIC [2]: 3.13 µg/mL (≈ 4.7 µM)
- MIC [3]: 0.78 µg/mL (≈ 1.17 µM)
- MIC [4]: 3.13 µg/mL (≈ 4.7 µM)
- MIC (Proteus vulgaris HX 19): 0.39 µg/mL (≈ 0.586 µM)
- MIC [5]: 12.5 µg/mL (≈ 18.8 µM)

SMILES: O=C(O)C1=C(CSc2nnc(CO)s2)CSC2C(NC(=O)C(NC(=O)c3cnccc3O)c3ccc(O)cc3)C(=O)N12 (stereo not shown) [Example 176]
- MIC (Escherichia coli NIHJ): 6.25 µg/mL (≈ 9.91 µM)
- MIC (Serratia No. 72): 50 µg/mL (≈ 79.3 µM)
- MIC [1]: 12.5 µg/mL (≈ 19.8 µM)
- MIC [2]: 12.5 µg/mL (≈ 19.8 µM)
- MIC [3]: 0.39 µg/mL (≈ 0.618 µM)
- MIC [4]: 6.25 µg/mL (≈ 9.91 µM)
- MIC (Proteus vulgaris HX 19): 0.2 µg/mL (≈ 0.317 µM)
- MIC [5]: 6.25 µg/mL (≈ 9.91 µM)

SMILES: O=C(O)C1=C(CSc2ccc(O)nn2)CSC2C(NC(=O)C(NC(=O)c3cnccc3O)c3ccc(O)cc3)C(=O)N12 (stereo not shown) [Example 177]
- MIC (Escherichia coli NIHJ): 6.25 µg/mL (≈ 10.2 µM)
- MIC (Serratia No. 72): 100 µg/mL (≈ 164 µM)
- MIC [1]: 12.5 µg/mL (≈ 20.5 µM)
- MIC [2]: 12.5 µg/mL (≈ 20.5 µM)
- MIC [3]: 0.39 µg/mL (≈ 0.639 µM)
- MIC [4]: 6.25 µg/mL (≈ 10.2 µM)
- MIC (Proteus vulgaris HX 19): 0.2 µg/mL (≈ 0.328 µM)
- MIC [5]: 6.25 µg/mL (≈ 10.2 µM)

SMILES: O=C(O)C1=C(CSc2nnc(CO)s2)CSC2C(NC(=O)C(NC(=O)c3cnc4cccnc4c3O)c3ccc(O)c(O)c3)C(=O)N12 (stereo not shown) [Example 178]
- MIC (Escherichia coli NIHJ): 3.13 µg/mL (≈ 4.49 µM)
- MIC (Serratia No. 72): 12.5 µg/mL (≈ 17.9 µM)
- MIC [1]: 6.25 µg/mL (≈ 8.96 µM)
- MIC [2]: 3.13 µg/mL (≈ 4.49 µM)
- MIC [3]: 0.78 µg/mL (≈ 1.12 µM)
- MIC [4]: 1.56 µg/mL (≈ 2.24 µM)
- MIC (Proteus vulgaris HX 19): 0.2 µg/mL (≈ 0.287 µM)
- MIC [5]: 6.25 µg/mL (≈ 8.96 µM)

SMILES: Cn1nnnc1SCC1=C(C(=O)O)N2C(=O)C(NC(=O)C(NC(=O)c3cnccc3O)c3ccc(O)c(Cl)c3)C2SC1 (stereo not shown) [Example 179]
- MIC (Escherichia coli NIHJ): 6.25 µg/mL (≈ 9.87 µM)
- MIC (Serratia No. 72): 50 µg/mL (≈ 79 µM)
- MIC [1]: 12.5 µg/mL (≈ 19.7 µM)
- MIC [2]: 12.5 µg/mL (≈ 19.7 µM)
- MIC [3]: 0.39 µg/mL (≈ 0.616 µM)
- MIC [4]: 6.25 µg/mL (≈ 9.87 µM)
- MIC (Proteus vulgaris HX 19): 0.39 µg/mL (≈ 0.616 µM)
- MIC [5]: 6.25 µg/mL (≈ 9.87 µM)

SMILES: Cn1nnnc1SCC1=C(C(=O)O)N2C(=O)C(NC(=O)C(NC(=O)c3cnc4cccnc4c3O)c3cccc(O)c3)C2SC1 (stereo not shown) [Example 180]
- MIC (Escherichia coli NIHJ): 3.13 µg/mL (≈ 4.82 µM)
- MIC (Serratia No. 72): 12.5 µg/mL (≈ 19.2 µM)
- MIC [1]: 3.13 µg/mL (≈ 4.82 µM)
- MIC [2]: 3.13 µg/mL (≈ 4.82 µM)
- MIC [3]: 0.78 µg/mL (≈ 1.2 µM)
- MIC [4]: 1.56 µg/mL (≈ 2.4 µM)
- MIC (Proteus vulgaris HX 19): 0.1 µg/mL (≈ 0.154 µM)
- MIC [5]: 6.25 µg/mL (≈ 9.62 µM)

SMILES: O=C(O)C1=C(CSc2nnc(CO)s2)CSC2C(NC(=O)C(NC(=O)c3cnc4cccnc4c3O)c3cccc(O)c3)C(=O)N12 (stereo not shown) [Example 181]
- MIC (Escherichia coli NIHJ): 1.56 µg/mL (≈ 2.29 µM)
- MIC (Serratia No. 72): 12.5 µg/mL (≈ 18.3 µM)
- MIC [1]: 6.25 µg/mL (≈ 9.17 µM)
- MIC [2]: 3.13 µg/mL (≈ 4.59 µM)
- MIC [3]: 0.78 µg/mL (≈ 1.14 µM)
- MIC [4]: 1.56 µg/mL (≈ 2.29 µM)
- MIC (Proteus vulgaris HX 19): 0.2 µg/mL (≈ 0.293 µM)
- MIC [5]: 6.25 µg/mL (≈ 9.17 µM)

SMILES: CC(=O)OCC1=C(C(=O)O)N2C(=O)C(NC(=O)C(NC(=O)c3cnccc3O)c3ccc(O)c(O)c3)C2SC1 (stereo not shown) [Example 182]
- MIC (Escherichia coli NIHJ): 12.5 µg/mL (≈ 22.4 µM)
- MIC (Serratia No. 72): > 200 µg/mL
- MIC [1]: 25 µg/mL (≈ 44.8 µM)
- MIC [2]: 12.5 µg/mL (≈ 22.4 µM)
- MIC [3]: 0.78 µg/mL (≈ 1.4 µM)
- MIC [4]: 25 µg/mL (≈ 44.8 µM)
- MIC (Proteus vulgaris HX 19): 0.78 µg/mL (≈ 1.4 µM)
- MIC [5]: 3.13 µg/mL (≈ 5.6 µM)
